Assay results from the supplement of paper PMC11208160.

Test: recombinant UMI read abundance after kanamycin selection (control-corrected) (log10(CPM+1)); higher = more efficient recombination; extreme values may be limits of the assay; sequences stand for … in AGTGCAGAGAAAATCGGCCAGTTTTCTCTGCCTGCAGTCCGCATGCCGTGGGACCCCTTGGGTTCTAACCTGTTGCCTAGATTTATGCAGCGGACTGCCTTTCTCCCAAAGTGATAAACCGG…AGGTTGGTTTCACT; site = the 11-nt donor
In short: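 Pooled Escherichia coli screen of donor and donor-binding-loop pairs for the IS621 bridge recombinase. Each pair sits with a 12-nt UMI on a plasmid carrying a promoterless kanamycin gene. The library was co-electroporated with a target plasmid encoding a fixed target and T7-inducible recombinase, then plated with IPTG (0.07 mM) plus kanamycin, or unselected, each in two replicates. Recombinant UMIs were PCR-amplified across the donor–target junction and sequenced. Counts became CPM, averaged over replicates, scaled by control-derived factors and reported as log10(CPM+1).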
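Note: IS621 bridge recombinase in Escherichia coli cells against a fixed T5 target plasmid.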

Point of comparison: “GCAAAAACATGGACCGGTTTTCCCGGTAATCCGTATTTGCT (site GCTAAAACTAG)”, “recombinant UMI read abundance (log10)” value 0. Against it:
- GATACGTCATGGACCGGTTTTCCCGGTAATCCGTATTTGGT (site GATACGTCTAC) — higher, 1.36
- GATAGAACATGGACCGGTTTTCCCGGTAATCCGTATTTGGC (site GATAGAACTGC) — higher, 1.7
- GATAGAACATGGACCGGTTTTCCCGGTAATCCGTATTTGGC (site GCTAGAACTGC) — the same, 0
- GATAGAACATGGACCGGTTTTCCCGGTAATCCGTATTTGGC (site GGTAGAACTGC) — the same, 0
- GATAGAACATGGACCGGTTTTCCCGGTAATCCGTATTTGGC (site GTTAGAACTGC) — the same, 0
- GATCAGACATGGACCGGTTTTCCCGGTAATCCGTATTTGAA (site GATCAGACTTT) — higher, 0.431
- GATCAGCCATGGACCGGTTTTCCCGGTAATCCGTATTTGCC (site GATCAGCCTGG) — higher, 0.649
- GATCAGCCATGGACCGGTTTTCCCGGTAATCCGTATTTGGT (site GATCAGCCTAC) — within 0.2 log units, 0.00497
- GATCGGACATGGACCGGTTTTCCCGGTAATCCGTATTTGAC (site GATAGGACTGT) — the same, 0
- GATCGGACATGGACCGGTTTTCCCGGTAATCCGTATTTGAC (site GATCGGACTGT) — higher, 1.11
- GATCGGACATGGACCGGTTTTCCCGGTAATCCGTATTTGAC (site GATGGGACTGT) — the same, 0
- GATCGGACATGGACCGGTTTTCCCGGTAATCCGTATTTGAC (site GATTGGACTGT) — the same, 0
- GATCTCACATGGACCGGTTTTCCCGGTAATCCGTATTTGAT (site GAACTCACTAT) — higher, 0.831
- GATCTCACATGGACCGGTTTTCCCGGTAATCCGTATTTGAT (site GACCTCACTAT) — within 0.2 log units, 0.0659
- GATCTCACATGGACCGGTTTTCCCGGTAATCCGTATTTGAT (site GAGCTCACTAT) — within 0.2 log units, 0.00697
- GATCTCACATGGACCGGTTTTCCCGGTAATCCGTATTTGAT (site GATCTCACTAT) — higher, 0.574
- GATCTTCCATGGACCGGTTTTCCCGGTAATCCGTATTTGAT (site GATCTTCCTAT) — within 0.2 log units, 0.048
- GATGCAACATGGACCGGTTTTCCCGGTAATCCGTATTTGAT (site GATGCAACTAT) — higher, 0.357
- GATGTAGCATGGACCGGTTTTCCCGGTAATCCGTATTTGCG (site GATGTAGCTCG) — higher, 1.72
- GATGTGTCATGGACCGGTTTTCCCGGTAATCCGTATTTGAA (site GATGTGTCTTT) — higher, 2.22
- GATGTTGCATGGACCGGTTTTCCCGGTAATCCGTATTTGCT (site GATGTTGCTAG) — higher, 2.51
- GATTAAACATGGACCGGTTTTCCCGGTAATCCGTATTTGCG (site GATTAAACTCG) — higher, 0.992
- GATTAGACATGGACCGGTTTTCCCGGTAATCCGTATTTGAC (site GATTAGACTGT) — higher, 2.76
- GATTAGACATGGACCGGTTTTCCCGGTAATCCGTATTTGAC (site GATTCGACTGT) — the same, 0
- GATTAGACATGGACCGGTTTTCCCGGTAATCCGTATTTGAC (site GATTGGACTGT) — the same, 0
- GATTAGACATGGACCGGTTTTCCCGGTAATCCGTATTTGAC (site GATTTGACTGT) — the same, 0
- GATTATGCATGGACCGGTTTTCCCGGTAATCCGTATTTGGA (site AATTATGCTTC) — higher, 0.871
- GATTATGCATGGACCGGTTTTCCCGGTAATCCGTATTTGGA (site CATTATGCTTC) — higher, 1.13
- GATTATGCATGGACCGGTTTTCCCGGTAATCCGTATTTGGA (site GATTATGCTTC) — higher, 0.861
- GATTATGCATGGACCGGTTTTCCCGGTAATCCGTATTTGGA (site TATTATGCTTC) — higher, 0.882
- GATTCATCATGGACCGGTTTTCCCGGTAATCCGTATTTGAG (site GATTCATCTCT) — higher, 1.31
- GATTGGCCATGGACCGGTTTTCCCGGTAATCCGTATTTGCG (site GATTGGCCTCG) — within 0.2 log units, 0.115
- GATTGTACATGGACCGGTTTTCCCGGTAATCCGTATTTGAC (site GATTGAACTGT) — the same, 0
- GATTGTACATGGACCGGTTTTCCCGGTAATCCGTATTTGAC (site GATTGCACTGT) — the same, 0
- GATTGTACATGGACCGGTTTTCCCGGTAATCCGTATTTGAC (site GATTGGACTGT) — the same, 0
- GATTGTACATGGACCGGTTTTCCCGGTAATCCGTATTTGAC (site GATTGTACTGT) — higher, 0.604
- GATTGTCCATGGACCGGTTTTCCCGGTAATCCGTATTTGCT (site GATTATCCTAG) — the same, 0
- GATTGTCCATGGACCGGTTTTCCCGGTAATCCGTATTTGCT (site GATTCTCCTAG) — the same, 0
- GATTGTCCATGGACCGGTTTTCCCGGTAATCCGTATTTGCT (site GATTGTCCTAG) — the same, 0
- GATTGTCCATGGACCGGTTTTCCCGGTAATCCGTATTTGCT (site GATTTTCCTAG) — the same, 0
- GATTTCGCATGGACCGGTTTTCCCGGTAATCCGTATTTGTC (site GATTTCGCTGA) — higher, 1.51
- GATTTGACATGGACCGGTTTTCCCGGTAATCCGTATTTGAC (site GATTAGACTGT) — the same, 0
- GATTTGACATGGACCGGTTTTCCCGGTAATCCGTATTTGAC (site GATTCGACTGT) — the same, 0
- GATTTGACATGGACCGGTTTTCCCGGTAATCCGTATTTGAC (site GATTGGACTGT) — the same, 0
- GATTTGACATGGACCGGTTTTCCCGGTAATCCGTATTTGAC (site GATTTGACTGT) — higher, 0.525
- GCAAAAACATGGACCGGTTTTCCCGGTAATCCGTATTTGCT (site GCAAAAACTAG) — higher, 0.226
- GCAAAAACATGGACCGGTTTTCCCGGTAATCCGTATTTGCT (site GCCAAAACTAG) — the same, 0
- GCAAAAACATGGACCGGTTTTCCCGGTAATCCGTATTTGCT (site GCGAAAACTAG) — the same, 0
- GCAAACCCATGGACCGGTTTTCCCGGTAATCCGTATTTGAT (site GCAAACCCTAT) — higher, 1.75
- GCAAACGCATGGACCGGTTTTCCCGGTAATCCGTATTTGGT (site GCAAACGCTAC) — higher, 1.71
- GCAAATTCATGGACCGGTTTTCCCGGTAATCCGTATTTGTA (site GCAAATTCTTA) — higher, 1.32
- GCAACTGCATGGACCGGTTTTCCCGGTAATCCGTATTTGCC (site GCAACTGCTGG) — the same, 0
- GCAACTGCATGGACCGGTTTTCCCGGTAATCCGTATTTGCC (site GCCACTGCTGG) — the same, 0
- GCAACTGCATGGACCGGTTTTCCCGGTAATCCGTATTTGCC (site GCGACTGCTGG) — the same, 0
- GCAACTGCATGGACCGGTTTTCCCGGTAATCCGTATTTGCC (site GCTACTGCTGG) — the same, 0
- GCAATACCATGGACCGGTTTTCCCGGTAATCCGTATTTGTG (site GCAATACCTCA) — within 0.2 log units, 0.00804
- GCAATTACATGGACCGGTTTTCCCGGTAATCCGTATTTGTC (site GCAATTACTGA) — higher, 0.939
- GCACACCCATGGACCGGTTTTCCCGGTAATCCGTATTTGTT (site GCACACCCTAA) — higher, 0.67
- GCACATCCATGGACCGGTTTTCCCGGTAATCCGTATTTGAC (site ACACATCCTGT) — higher, 2.23
- GCACATCCATGGACCGGTTTTCCCGGTAATCCGTATTTGAC (site CCACATCCTGT) — the same, 0
- GCACATCCATGGACCGGTTTTCCCGGTAATCCGTATTTGAC (site GCACATCCTGT) — the same, 0
- GCACATCCATGGACCGGTTTTCCCGGTAATCCGTATTTGAC (site TCACATCCTGT) — higher, 0.745
- GCACTTTCATGGACCGGTTTTCCCGGTAATCCGTATTTGGG (site GCACTTTCTCC) — higher, 2.31
- GCAGACTCATGGACCGGTTTTCCCGGTAATCCGTATTTGTT (site GCAGACTCTAA) — higher, 3.03
- GCAGATCCATGGACCGGTTTTCCCGGTAATCCGTATTTGCT (site GCAGATCCTAG) — the same, 0
- GCAGATTCATGGACCGGTTTTCCCGGTAATCCGTATTTGTT (site GAAGATTCTAA) — the same, 0
- GCAGATTCATGGACCGGTTTTCCCGGTAATCCGTATTTGTT (site GCAGATTCTAA) — higher, 2.97
